Laboratory results published in PMC4297288, “Metal-assisted synthesis of unsymmetrical magnolol and honokiol analogs and their biological assessment as GABAA receptor ligands” (Bioorganic & Medicinal Chemistry Letters, 2015).
Read-outs that look alike come from different tables or passages of the source.

Columns and labels:
Assay type in all cases: cell-based
[1] = biological target: T1, α1β2γ2 GABAA receptor (β2 subunit) (Rattus norvegicus, UniProt P63138); assay: two-electrode voltage clamp, % IGABA at […] compound, GABA EC0.[…]
T1 construct: gene Gabrb2; recombinant α1β2γ2 receptor expressed in Xenopus laevis oocytes; with GABAA α1 (Gabra1) and γ2 (Gabrg2) subunits

[2] = biological target: T2, α1β1γ2 GABAA receptor (β1 subunit) (Rattus norvegicus, UniProt P15431); assay: two-electrode voltage clamp, potentiation of IGABA at GABA EC10-20
T2 construct: gene Gabrb1; recombinant α1β1γ2 receptor expressed in Xenopus laevis oocytes; with GABAA α1 (Gabra1) and γ2 (Gabrg2) subunits

[3] = biological target: T1, α1β2γ2 GABAA receptor (β2 subunit); assay: as above

T1 sequence (P63138 26-474): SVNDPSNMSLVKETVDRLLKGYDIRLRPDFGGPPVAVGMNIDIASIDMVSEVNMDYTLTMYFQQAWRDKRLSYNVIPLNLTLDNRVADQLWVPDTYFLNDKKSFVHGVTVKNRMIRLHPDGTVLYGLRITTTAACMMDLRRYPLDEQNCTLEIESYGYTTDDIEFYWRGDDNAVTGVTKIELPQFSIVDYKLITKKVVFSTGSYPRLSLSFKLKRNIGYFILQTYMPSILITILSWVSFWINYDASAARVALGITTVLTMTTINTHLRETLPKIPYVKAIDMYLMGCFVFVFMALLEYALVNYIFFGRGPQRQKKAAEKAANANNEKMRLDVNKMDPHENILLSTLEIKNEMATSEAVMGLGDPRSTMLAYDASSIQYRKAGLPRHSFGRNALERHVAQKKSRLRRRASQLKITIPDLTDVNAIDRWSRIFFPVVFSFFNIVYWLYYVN
T1 sequence (P62813 28-455 partner): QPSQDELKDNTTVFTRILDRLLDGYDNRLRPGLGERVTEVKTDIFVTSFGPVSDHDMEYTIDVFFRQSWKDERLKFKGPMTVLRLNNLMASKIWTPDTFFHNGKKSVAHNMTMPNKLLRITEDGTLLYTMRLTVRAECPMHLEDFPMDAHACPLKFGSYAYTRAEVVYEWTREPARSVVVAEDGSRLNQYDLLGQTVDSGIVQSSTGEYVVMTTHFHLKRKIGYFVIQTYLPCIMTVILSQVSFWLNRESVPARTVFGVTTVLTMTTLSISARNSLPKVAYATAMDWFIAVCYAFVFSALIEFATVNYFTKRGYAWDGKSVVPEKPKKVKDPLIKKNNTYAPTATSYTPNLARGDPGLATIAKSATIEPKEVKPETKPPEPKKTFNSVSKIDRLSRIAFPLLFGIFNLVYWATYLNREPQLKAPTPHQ
T1 sequence (P18508 39-466 partner): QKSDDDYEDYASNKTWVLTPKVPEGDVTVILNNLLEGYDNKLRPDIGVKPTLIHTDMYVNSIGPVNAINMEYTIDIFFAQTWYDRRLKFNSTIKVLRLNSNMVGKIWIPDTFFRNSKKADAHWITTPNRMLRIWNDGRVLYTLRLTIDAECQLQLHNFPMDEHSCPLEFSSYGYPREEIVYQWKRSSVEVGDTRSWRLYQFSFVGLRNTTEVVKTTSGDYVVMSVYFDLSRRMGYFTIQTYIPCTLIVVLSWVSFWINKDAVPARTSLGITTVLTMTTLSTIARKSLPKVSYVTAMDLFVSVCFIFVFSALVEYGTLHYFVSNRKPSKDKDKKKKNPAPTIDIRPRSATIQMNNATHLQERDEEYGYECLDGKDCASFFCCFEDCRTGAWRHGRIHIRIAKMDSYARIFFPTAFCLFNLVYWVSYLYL
T2 sequence (P15431 26-474): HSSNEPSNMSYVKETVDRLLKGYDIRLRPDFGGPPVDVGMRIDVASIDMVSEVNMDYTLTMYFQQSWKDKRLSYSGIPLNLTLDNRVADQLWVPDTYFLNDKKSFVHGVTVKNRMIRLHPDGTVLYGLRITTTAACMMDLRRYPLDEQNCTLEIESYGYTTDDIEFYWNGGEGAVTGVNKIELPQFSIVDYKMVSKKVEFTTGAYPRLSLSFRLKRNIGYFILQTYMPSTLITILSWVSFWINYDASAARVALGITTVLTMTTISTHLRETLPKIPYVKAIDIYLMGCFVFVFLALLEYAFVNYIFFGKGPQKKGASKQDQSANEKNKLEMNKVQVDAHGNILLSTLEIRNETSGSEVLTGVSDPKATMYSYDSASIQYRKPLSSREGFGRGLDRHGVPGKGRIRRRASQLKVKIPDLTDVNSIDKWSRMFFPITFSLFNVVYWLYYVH
T2 sequence (P62813 28-455 partner): as the sequence (P62813 28-455 partner) above
T2 sequence (P18508 39-466 partner): as the sequence (P18508 39-466 partner) above

SMILES	activation at 3 µM [1]	further results
C=CCc1ccc(O)c(-c2ccccc2C)c1 [8b]	207 ± 33%	
C=CCc1ccc(O)c(-c2cccc(OC)c2)c1 [8f]	136 ± 32%	
C=CCc1ccc(O)c(-c2ccc(OC)cc2)c1 [8g]		EC50 ([2]; read-out: EC50): 30 µM; EC50 ([3]; read-out: EC50): ~7 µM
C=CCc1ccc(O)c(-c2cccc(C(=O)OC)c2)c1 [8i]	406 ± 70%	
C=CCc1ccc(O)c(-c2cc(CC=C)ccc2O)c1 [compound 1, magnolol]	338 ± 93%	
C=CCc1ccc(O)c(-c2ccc(O)c(CC=C)c2)c1 [compound 2, honokiol]		EC50 [2]: 20 µM; EC50 [3]: 20 µM
